Here are results for eleven molecules from patent US10322165B2, “TIFA antagonists and their use for treating diseases” (ACADEMIA SINICA, priority 2017, dated 2019).

For one data set, the system named is NF-κB. The data set can be described thus: Luciferase reporter assay and western blot for NF-κB activity. The class given is cell-based. The settings on record: for TNF-α-dependent NF-κB activation and elevations of NF-κB signaling factors: U937 cells stably expressing the fragment, 10 ng/mL TNF-α for 30 min. Here is the method: After 5 repeated freeze-thaw cycles, cell extracts were cleared by centrifugation at 4° C. Cell extracts were quantified using Bradford assay, and equal amounts of soluble proteins were mixed with SDS sample buffer, boiled, separated by SDS-PAGE, and blotted onto PVDF membranes (Millipore). Membranes were then blocked for 1 h with 5% dry milk in PBST (PBS supplemented with 0.1% Tween-20) buffer and incubated for overnight at 4° C. with primary antibody diluted in PBST containing 1% bovine serum albumin (Sigma). After three washes with PBST, membranes were incubated with HRP-conjugated anti-mouse or anti-rabbit IgG. […] All western blot analyses were performed independently at least three times except that of primary PBMCs.
Luciferase-based NF-κB reporter assay was conducted as previously described (20). A total of 6×10^5 293T or 10^6 suspension U937 Cells in one well of 6-well plates with indicated conditions were transiently transfected with 2 μg of pNF-κB-Luc reporter plasmid for 48 h before harvest. Cells were treated with 10 ng/mL TNF-α (R&D Systems) for 30 min and lysed with 1× passive lysis buffer (Promega). 100 μg of cell lysates was dispensed into a well of 96-well plate, followed by addition of 100 μL of luciferase assay buffer LARII (Promega) and 100 μL of Stop & Glo reagent (Promega). The triplicated chemiluminescence were measured by SpectraMax Paradigm Multi-Mode Plate Reader (Molecular Devices) and normalized to corresponding β-actin level from a parallel western blot analysis of cell lysates. Results were represented as relative luminescence units (RLU) from three independent experiments.
On the technique in general: In a reporter assay the amount or activity of a reporter protein is the signal.

The test system of the next data set is AML PBMCs. The data set can be described thus: WST-1 viability and chemosensitivity of freshly isolated AML PBMCs. The settings on record: TIFA silencing. The class given is cell-based, human. The source says:
Hela, 293T, and HL-60 cell lines were obtained from Dr. Li-Jung Juan of Academia Sinica (Taipei, Taiwan, 2014), KG-1 cell line was obtained from Prof. Shih-Lan Hsu of Taichung Veterans General Hospital (Taichung, Taiwan, 2015), and the rest of cell lines were obtained from Dr. Shui-Tein Chen of Academia Sinica (Taipei, Taiwan, 2015). All cell lines were expanded and stored in liquid nitrogen when received. Original vials were thawed for these experiments and authenticated simultaneously by STR DNA fingerprinting using the Promega GenePrint® 10 System and analyzed by ABI PRISM 3730 GENETIC ANALYZER and GeneMapper® softeware. All resulting SI R profiles were matched with known ATCC fingerprints (ATCC.org). Maintenance of respective cell lines followed our previous protocols (20,27,28). 293T and HeLa cells were maintained in Dulbecco's modified Eagle's medium (DMEM, Gibco). […] All media were supplemented with 10% decomplemented fetal bovine serum (FBS, Gibco), […] L-glutamine (Gibco), 100 U/mL penicillin (Gibco) and 100 μg/mL streptomycin (Gibco). All cells were incubated in a humidified atmosphere at 37° C. with 5% CO2. To isolate human PBMCs, freshly acquired whole bloods were layered over Ficoll (GE healthcare) as previously described (28). Isolated primary cells were maintained according to a previously described protocol (29) and subjected to experimental analyses within two weeks. […]
(In general: Tetrazolium dyes change colour on reduction, which living cells bring about.)

Data set [1] relates to acute lymphoblastic leukemia (ALL) line Jurkat and CML line K562. The experiment in a line: WST-1 viability assay, proliferation of ALL and CML lines. The class given is cell-based.
Protocol: (§1) To silence specific genes, 6×10^5293T cells or 10^6 suspension cells were transfected with 30 pmol (293T cells) or 50 pmol (suspension cells) of indicated siRNA supplemented with 9 or 15 μL of Lipofectamine RNAiMAX (Invitrogen) in the presence of Opti-MEM (Invitrogen) according to the manufacturer's instruction. Six hours after primary transfection, cells were incubated with the regular medium for 24 h, and the secondary siRNA transfection was performed with the same protocol. Cells or conditional media were collected after 72 h of incubation.
(§2) A total of 10^5 suspension cells under indicated condition were seeded per well in 96-well plates and cell viability was analyzed at the indicated time point post treatment.
Data set [2] concerns AML cell lines HL-60, KG-1, THP-1, and U937. The data set can be described thus: WST-1 viability assay, growth of AML lines. The format is cell-based. The settings on record: WST-1, time course after TIFA silencing.
Protocol: as §1, §2
Data set [3] has as its system U937 cells. The data set can be described thus: WST-1 viability of cytarabine-treated U937 cells. The class given is cell-based. Conditions: 5 μg/mL etanercept, 50 nM bortezomib, or 1 μM ABT-263 together with 10 μM cytarabine.
Protocol: as §2
Data set [4] relates to MCF-7 (breast cancer cells). The data set can be described thus: WST-1 cytotoxicity of anti-cancer treatments with or without TIFA silencing. The class given is cell-based. Conditions: 4th day, Sorafenib 5 μM, Cisplatin 5 μM, Etoposide 10 μM, IR 5Gy.
Protocol: (§3) For transient transfection of 293T cells, 6×10^5 cells were transfected with 2 μg of indicated plasmid DNA using Jet-PEI (Polyplus Transfection) for 48 h (pCDNA3.1 vector, HA-tagged TIFA, and pNF-κB-Luc) or 24 h (Flag-tagged Aurora A) according to the manufacturer's instruction. For transient transfection of U937 cells, 10^6 suspension cells were transfected with 3 μg of the pNF-κB-Luc plasmid DNA using Lipofectamine 2000 (Invitrogen) for 48 h according to the manufacturer's instruction. To silence specific genes, 6×10^5293T cells or 10^6 suspension cells were transfected with 30 pmol (293T cells) or 50 pmol (suspension cells) of indicated siRNA supplemented with 9 or 15 μL of Lipofectamine RNAiMAX (Invitrogen) in the presence of Opti-MEM (Invitrogen) according to the manufacturer's instruction. Six hours after primary transfection, cells were incubated with the regular medium for 24 h, and the secondary siRNA transfection was performed with the same protocol. Cells or conditional media were collected after 72 h of incubation.
as §2
(§4) Cytotoxicity of cells at the 4th day was normalized to treatment without TIFA silencing and presented.
Data set [5] concerns U2OS (osteosarcoma cells). The description is as above. The settings on record: 4th day, Sorafenib 5 μM, Cisplatin 5 μM, Etoposide 10 μM, IR 5Gy.
Protocol: as §3, §2, §4
The test system of the next data set is H446 (lung cancer cells). The description is as above. Conditions: 4th day, Sorafenib 5 μM, Cisplatin 5 μM, Etoposide 10 μM, IR 5Gy.
The test system of another data set is J5 (liver cancer cells). Described as above. The class given is cell-based. Conditions: 4th day, Sorafenib 5 μM, Cisplatin 5 μM, Etoposide 10 μM, IR 5Gy.
The subject of data set [6] is HepG2 (liver cancer cells). The data set is described as above. Conditions: 4th day, Sorafenib 5 μM, Cisplatin 5 μM, Etoposide 10 μM, IR 5Gy.
Protocol: as §3, §2, §4
The subject of data set [7] is AML lines (HL-60, KG-1, THP-1, U937). The experiment in a line: WST-1 based survival test, IC50 of chemo drugs in AML lines. The class given is cell-based. The settings on record: all four tested AML lines; siTIFA vs control siRNA.
In a further data set the test system is THP-1 (leukaemia cells). The experiment in a line: WST-1 cytotoxicity of anti-cancer treatments with or without TIFA silencing. The settings on record: 4th day, Sorafenib 5 μM, Cisplatin 5 μM, Etoposide 10 μM, IR 5Gy.
The test system of data set [8] is HeLa (cervical cancer cells). The data set is described as above. Conditions: 4th day, Sorafenib 5 μM, Cisplatin 5 μM, Etoposide 10 μM, IR 5Gy.
Protocol: as §3, §2, §4
The subject of data set [9] is MDA-MB-231 (breast cancer cells). Described as above. The format is cell-based. The settings on record: 4th day, Sorafenib 5 μM, Cisplatin 5 μM, Etoposide 10 μM, IR 5Gy.
Protocol: as §3, §2, §4
The subject of a further data set is Jurkat (leukaemia cells). The data set is described as above. The settings on record: 4th day, Sorafenib 5 μM, Cisplatin 5 μM, Etoposide 10 μM, IR 5Gy.
For data set [10], the system named is NTera2 (testicular embryonic carcinoma). The data set is described as above. The class given is cell-based. Conditions: 4th day, Sorafenib 5 μM, Cisplatin 5 μM, Etoposide 10 μM, IR 5Gy.
Protocol: as §3, §2, §4
The next data set has as its system K562 (leukaemia cells). The data set is described as above. The settings on record: 4th day, Sorafenib 5 μM, Cisplatin 5 μM, Etoposide 10 μM, IR 5Gy.
The next data set deals with A549 (lung cancer cells). Described as above. Conditions: 4th day, Sorafenib 5 μM, Cisplatin 5 μM, Etoposide 10 μM, IR 5Gy.
Data set [11] has as its system U937 cells. The experiment in a line: Cytokine antibody array and ELISA of secreted cytokines. The class given is cell-based. The settings on record: 10 μM cytarabine, conditioned media. On the procedure: Condition media from equal numbers of cultured U937 cells were collected at 72 h post indicated treatments and assessed by the Human Cytokine Array C1 according to the manufacturer's instruction (AAH-CYT-1, RayBiotech). Data were acquired using the ImageJ software and normalized to the positive controls. When indicated, the amounts of secreted cytokines and chemokines in the conditional mediums were determined by the enzyme-linked immunosorbent assay (ELISA) test kit following the manufacturer's instructions (R&D Systems). The absorbances of triplicated samples were read by SpectraMax Paradigm Plate Reader (Molecular Devices).
On the technique in general: ELISA stands for enzyme-linked immunosorbent assay.

The next data set has as its target T1, endogenous TIFA (Homo sapiens, UniProt Q96CG3).
T1 construct: endogenous in cells; host or cells: U937 cells (retrovirally transduced with Myc-tagged TIFA fragments)
T1 sequence (Q96CG3 1-184): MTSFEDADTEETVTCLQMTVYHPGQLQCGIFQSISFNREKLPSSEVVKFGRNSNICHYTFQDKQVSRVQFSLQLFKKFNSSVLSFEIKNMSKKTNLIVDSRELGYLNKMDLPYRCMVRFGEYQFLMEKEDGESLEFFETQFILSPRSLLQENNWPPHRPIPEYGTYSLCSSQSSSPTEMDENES
The data set can be described thus: Immunoprecipitation of lysates from transduced U937 cells. The format is binding. The settings on record: U937 cells stably expressing Myc-tagged fragment; anti-Myc immunobeads, western blot.

Protocol for A549 (lung cancer cells): as §3, §2, §4
Protocol for H446 (lung cancer cells): as §3, §2, §4
Protocol for J5 (liver cancer cells): as §3, §2, §4
Protocol for Jurkat (leukaemia cells): as §3, §2, §4
Protocol for K562 (leukaemia cells): as §3, §2, §4
Protocol for THP-1 (leukaemia cells): as §3, §2, §4

Regarding “5′-UCAGGACAAACAGGUUUCCCGAGUU-3′ [TIFA siRNA]”, in the data set with NF-κB (overexpression of Aurora A (293T) or TNF-α treatment (U937), silencing of TIFA), the “elevation of activated NF-κB, phosphorylated IκK and IκB, and NF-κB-driven luciferase activity” value was “negated”. Besides, the “growth of AML PBMCs” value in the data set with AML PBMCs (WST-1 time course) is listed as “growth retardation”. For the same molecule, in the data set on AML PBMCs (chemo drug treatments, WST-1), the “chemosensitivities of patient-derived PBMCs” value was “consistently promoted chemosensitivities”. The cell proliferation result in data set [1] was “inhibited”. Further, the “growth of AML cell lines” value in [2] is recorded as “attenuates the growth”.
As to `CC1(C)CCC(c2ccc(Cl)cc2)=C(CN2CCN(c3ccc(C(=O)NS(=O)(=O)c4ccc(N[C@H](CCN5CCOCC5)CSc5ccccc5)c(S(=O)(=O)C(F)(F)F)c4)cc3)CC2)C1` [ABT-263], the “cytotoxicity of cytarabine-treated U937 cells” value in the data set on U937 cells [3] is on record as “enhanced the cytotoxicity”.
`COc1cc([C@@H]2c3cc4c(cc3[C@@H](O[C@@H]3O[C@@H]5CO[C@@H](C)O[C@H]5[C@H](O)[C@H]3O)[C@H]3COC(=O)[C@H]23)OCO4)cc(OC)c1O` [Etoposide, etoposide]: the “fold change of cytotoxicity (cytotoxicity of TIFA silencing/cytotoxicity of non-silencing)” value worked out at 1.30 fold changes in data set [4]; 1.48 fold changes in data set [5]; 1.27 fold changes in the data set with H446 (lung cancer cells); 1.64 fold changes in the data set on J5 (liver cancer cells); 1.61 fold changes in data set [6]; 1.59 fold changes in the data set with THP-1 (leukaemia cells). The “fold change of cytotoxicity (cytotoxicity of TIFA silencing/cytotoxicity of non-silencing)” value came out at 1.29 fold changes in data set [8]; 1.46 fold changes in [9]; 1.79 fold changes with Jurkat (leukaemia cells); 1.15 fold changes in data set [10]; 2.28 fold changes with K562 (leukaemia cells); 1.77 fold changes with A549 (lung cancer cells). For the same molecule, the “decrease in IC50 of the chemo drug under TIFA silencing” value (shortened to “decrease in IC50 of the chemo drug”) in data set [7] is reported as “ca. 50%”.
With `CNC(=O)c1cc(Oc2ccc(NC(=O)Nc3ccc(Cl)c(C(F)(F)F)c3)cc2)ccn1` [Sorafenib, sorafenib], in [4], the “fold change of cytotoxicity (cytotoxicity of TIFA silencing/cytotoxicity of non-silencing)” value amounted to 1.47 fold changes.
With `Cc1cc(Nc2cc(N3CCN(C)CC3)nc(Sc3ccc(NC(=O)C4CC4)cc3)n2)n[nH]1` [VX680], the cell proliferation entry in [1] is reported as “inhibited”.
Regarding `CC(C)C[C@H](NC(=O)[C@H](Cc1ccccc1)NC(=O)c1cnccn1)B(O)O` [bortezomib], the “cytotoxicity of cytarabine-treated U937 cells” value in the data set on U937 cells [3] is on record as “enhanced the cytotoxicity”.
Take `Nc1ccn([C@@H]2O[C@H](CO)[C@@H](O)[C@@H]2O)c(=O)n1` [cytarabine]: in the data set on U937 cells [11], the “secretion of IL-6” value is recorded as “suppressed”; the “secretion of TNF-α, CXCL-1, and IL-8” value is listed as “promoted”. In data set [7], the “decrease in IC50 of the chemo drug” value is given as “ca. 50%”.
As to `CC(=O)[C@]1(O)Cc2c(O)c3c(c(O)c2[C@@H](O[C@H]2C[C@H](N)[C@H](O)[C@H](C)O2)C1)C(=O)c1ccccc1C3=O` [idarubicin], in [7], the “decrease in IC50 of the chemo drug” value was “ca. 50%”.
As to etanercept, the “cytotoxicity of cytarabine-treated U937 cells” value with U937 cells [3] is “enhanced the cytotoxicity”.

B1: F1F2: dominant-negative TIFA fragment: Thr9 segment (F1) plus dimerization-core (F2), Myc-tagged, expressed by retroviral transduction (protein)
chain: MTSFEDADTEETVTCLQMTVYHPGQLQCGIFQSISFNREKLPSSEVVKFGRNSNICHYTFQDKQVSRVQFSLQLFKKFNSSVLSFEIKNMSKKTNLIVDSREL
modifications: left off: small tags and cut ends
notes: dominant-negative TIFA fragment: Thr9 segment (F1) plus dimerization-core (F2), Myc-tagged, expressed by retroviral transduction
Regarding B1, the “TNF-α-dependent NF-κB activation and elevations of NF-κB signaling factors” value with NF-κB is listed as “attenuated”. The “pull down of endogenous TIFA” value with endogenous TIFA is reported as “able to pull down endogenous TIFA”.

B2: F2F3: dominant-negative TIFA fragment: dimerization-core (F2) plus TRAF6/TRAF2 interacting segment (F3), Myc-tagged, expressed by retroviral transduction (protein)
chain: VVKFGRNSNICHYTFQDKQVSRVQFSLQLFKKFNSSVLSFEIKNMSKKTNLIVDSRELGYLNKMDLPYRCMVRFGEYQFLMEKEDGESLEFFETQFILSPRSLLQENNWPPHRPIPEYGTYSLCSSQSSSPTEMDENES
modifications: left off: small tags and cut ends
Turning to B2, the “TNF-α-dependent NF-κB activation and elevations of NF-κB signaling factors” value in the data set on NF-κB is reported as “attenuated”. The “pull down of endogenous TIFA” value with endogenous TIFA is on record as “able to pull down endogenous TIFA”.
